In patent publication US10377818B2, “Method of treating glioma” (The Board of Trustees of the Leland Stanford Junior …, priority 2015, dated 2019):
Where two headings read alike, the source gives them in different places.

Tests used:
SU-pcGBM2 cells [1] = experiment: EdU incorporation assay, proliferation index of pHGG cells (SU-pcGBM2); type: cell-based, human; conditions: for effect on the proliferative effect of active CM: 100 nM TRKB inhibitor ANA12 in combination with 500 nM NRXN; for effect on 50 nM NLGN3-induced increase in proliferation index: inhibitor 100 nM, EdU assay; for effect on proliferation index relative to aCSF control: recombinant candidate proteins at 100 nM for 24 hours; for potency of proliferation promotion compared with NLGN3: pHGG cells, dose curves 0-100 nM
secreted NLGN3 = experiment: Secreted NLGN3 in active CM of acute cortical slices incubated with protease inhibitors, Western blot; type: cell-based, mouse; conditions: slices incubated with protease inhibitor during optogenetic stimulation, preliminary experiments
Description: (§1) Thy1::ChR2 or WT mice between the age of 4-7 weeks were briefly exposed to CO2, and immediately decapitated. Extracted brains were placed in oxygenated sucrose solution and sliced in 350-μm sections using a vibratome (Leica VT 1200S, Buffalo Grove, Ill.). Slices were then placed in buffering solution (aCSF; 119 mM NaCl, 11 mM D-glucose, 25 mM NaHCO3, 2.5 mM KCl, 1.2 mM NaH2PO4, 2.3 mM MgCl2, and 2.5 mM CaCl2) and allowed to recover for at least an hour. After recovery, slices were then moved into a 24 well plate and stimulated using a blue-light LED from a microscope objective. The stimulation paradigm mirrored in vivo experiments, using 20-Hz pulses of blue light for a 30 s on, 90 s off cycle over a period of 30 minutes. Surrounding medium was then collected for immediate use or frozen for future experiments.
A series of similar preliminary experiments were performed in which acute cortical slices were incubated with different protease inhibitors during optogenetic stimulation and then the active CM was analyzed by Western blot for secreted NLGN3.
Role for MMP9 in NLGN3 secretion: Acute cortical slices from Thy1::ChR2 mice were optogenetically-stimulated in the presence or absence of protease inhibitors as indicated. Conditioned media was analyzed by Western blot for secreted NLGN3 content.

[2] = system: NLGN3 mRNA in SU-pcGBM2 cells; experiment: qPCR of NLGN3 gene expression in SU-pcGBM2 cells; type: cell-based, human; conditions: for effect on soluble NLGN3-induced increase in NLGN3 gene expression: 50 nM NLGN3 plus inhibitor, BKM120 500 nM (FIG. 5E) or 100 nM (FIG. 29), RAD001 100 nM
[3] = system: soluble NLGN3 in the CM (NLGN3 secretion); experiment: Soluble NLGN3 in CM of optogenetically stimulated acute cortical slices, 2D-PAGE and mass spectrometry; type: cell-based, mouse; conditions: slices incubated with inhibitor during optogenetic stimulation; pilot experiment
Description: as §1

SU-pcGBM2 cells [4] = type: cell-based, human
pHGG cells = experiment: pHGG cell proliferation with active CM from slices stimulated in presence of protease inhibitor; type: cell-based, human; conditions: inhibitor present during optogenetic stimulation of slices
Text: MMP inhibition abrogates activity-regulated glioma proliferation. Acute cortical slices were optogenetically-stimulated in the presence or absence of a protease inhibitor as in Example 14, and pHGG cells were exposed to the CM. As expected, active CM in the absence of protease inhibitors contained secreted NLGN3 (FIG. 37) and promoted glioma cell proliferation (FIG. 38).
MMP inhibition in situ reduces activity-regulated glioma cell proliferation in vitro Active CM from Thy1::ChR2 cortical slices were incubated with either the multi-MMP inhibitor batimastat (A) or the ADAM17 inhibitor TAPI (B) during optogenetic stimulation and the active CM collected. Unconditioned media (aCSF) with or without inhibitor was used in control wells. Data shown as mean±SEM. One-way ANOVA, *P<0.05, ***P<0.001. n.s.=P>0.05.

With `O=C(Nc1ccccc1C(=O)NC1CCCCNC1=O)c1cc2ccccc2s1` (stereo not drawn) [ANA12, reference compound] the “effect on the proliferative effect of active CM” value (SU-pcGBM2 cells [1]) was “completely abrogates the proliferative effect of active CM”.

`CC(C)ON(CC(=O)NO)S(=O)(=O)c1ccc(-c2ccccc2)cc1` [ARP100] was tested, and the “secreted NLGN3 levels in active CM” value (secreted NLGN3) was “No detectable decrease in secreted NLGN3”.

In the case of `Cl.Nc1cc(C(F)(F)F)c(-c2cc(N3CCOCC3)nc(N3CCOCC3)n2)cn1` [BKM120, 5-(2,6-dimorpholin-4-ylpyrimidin-4-yl)-4-(trifluoromethyl)pyridin-2-amine hydrochloride], the “effect on 50 nM NLGN3-induced increase in proliferation index” value (SU-pcGBM2 cells [1]) is reported as “blocked”, the “effect on soluble NLGN3-induced increase in NLGN3 gene expression” value ([2]; 12 h) is reported as “blocked the soluble NLGN3-induced increase in NLGN3 gene expression” and the “effect on NLGN3 expression in the absence of soluble NLGN3 exposure” value ([2]; BKM120 alone, 12 h) is reported as “no effect on NLGN3 expression”.

For `CNC(=O)[C@@H](NC(=O)[C@H](CCCc1ccccc1)[C@H](C)N(O)C=O)C(C)(C)C` [GI254023X], the “reduction in soluble NLGN3 in the CM” value [3] was about 50%.

With `O=C(NO)[C@@H](Cc1ccccc1)NS(=O)(=O)c1ccc(-c2ccccc2)cc1` [MMP2/9 inhibitor SCBT inhibitor II, (2R)—N-hydroxy-3-phenyl-2-[(4-phenylphenyl)sulfonylamino]propanamide] the “secreted NLGN3 levels in active CM” value (secreted NLGN3) was “significant decrease in NLGN3 levels”.

In the case of `COc1ccc(S(=O)(=O)N2CCN(C(=O)OCc3ccccc3)CC2C(=O)NO)cc1` (stereo not drawn) [MMP9/13 Inhbitor II], the “secreted NLGN3 levels in active CM” value (secreted NLGN3) is reported as “significant decrease in NLGN3 levels”.

In the case of `CO[C@H]1C[C@@H]2CC[C@@H](C)[C@@](O)(O2)C(=O)C(=O)N2CCCC[C@H]2C(=O)O[C@H]([C@H](C)C[C@@H]2CC[C@@H](OCCO)[C@H](OC)C2)CC(=O)[C@H](C)/C=C(\C)[C@@H](O)[C@@H](OC)C(=O)[C@H](C)C[C@H](C)/C=C/C=C/C=C/1C` [RAD001, reference compound], the “effect on 50 nM NLGN3-induced increase in proliferation index” value (SU-pcGBM2 cells [1]) is reported as “blocks 50 nM NLGN3-induced proliferation” and the “effect on soluble NLGN3-induced increase in NLGN3 gene expression” value ([2]; 12 h) is reported as “prevented the feed-forward effect of NLGN3 on NLGN3 gene expression”.

`NC1=N[C@H](O)[C@H]2[C@H]3O[C@]4(O)O[C@@H]([C@@H](O)[C@@]2(N1)[C@@H]4O)[C@]3(O)CO` [TTX, tetrodotoxin] was tested, and the proliferation index (SU-pcGBM2 cells [4]) was about 0.25.

With “ApoE: Recombinant candidate protein from proteomic analyses of cortical slice conditioned media” the “effect on proliferation index relative to aCSF control” value (SU-pcGBM2 cells [1]) was “did not differ”.

With “BDNF: Recombinant brain-derived neurotrophic factor (R&D Systems), candidate mitogen” the “potency of proliferation promotion compared with NLGN3” value (SU-pcGBM2 cells [1]) was “less potently than NLGN3” and the “effect on proliferation index relative to aCSF control” value (SU-pcGBM2 cells [1]) was “promote glioma cell proliferation”.

For “EGF: Epidermal growth factor (Shenandoah), ligand known to stimulate the PI3K pathway”, the “effect on glioma cell NLGN3 expression” value ([2]; 50 nM EGF, 12 hour vs vehicle) was “no effect was found”.

With “GRP78: Recombinant 78-kDa glucose-regulated protein (Abcam), known glioma mitogen” the “potency of proliferation promotion compared with NLGN3” value (SU-pcGBM2 cells [1]) was “less potently than NLGN3” and the “effect on proliferation index relative to aCSF control” value (SU-pcGBM2 cells [1]) was “promote glioma cell proliferation”.

For “NRXN1β: Recombinant neurexin-1β (R&D Systems), binds NLGN3 with high affinity, used to deplete NLGN3”, the “effect on the proliferative effect of active CM” value (SU-pcGBM2 cells [1]) was “completely abrogates the proliferative effect of active CM”, the “effect on proliferation index” value (SU-pcGBM2 cells [1]; NRXN1β alone (500 nM) added to aCSF or to CM from WT cortical slices) was “no effect on proliferation index” and the proliferation index (SU-pcGBM2 cells [1]; pHGG cells exposed to 50 nM NLGN3+500 nM NRXN1β) was 0.28±0.01. The proliferation index (SU-pcGBM2 cells [1]; pHGG cells exposed to Thy1::ChR2 CM+NRXN1β (500 nM)) was 0.34±0.01.

TAPI was tested, and the “secreted NLGN3 levels in active CM” value (secreted NLGN3) was “no effect on NLGN3 levels was observed”, the “secreted NLGN3 levels in active CM” value (secreted NLGN3; listed as ADAM17 inhibitor) was “did not decrease NLGN3 levels” and the “effect on the mitogenic effect of active CM” value (pHGG cells) was “did not alter the mitogenic effect of active CM”.
